# Data from patent publication US11260083B2, “Compositions and methods for treating and preventing graft versus host disease” (The Regents of the University of Michigan, priority 2016, dated 2022).
# Experiments:
# [1] = tested on: donor T cells, Treg cells and macrophages in the intestine; assay: Flow cytometry of intestinal cellular contents after allo-BMT; format: in vivo, mouse
# Description: To analyze immunophenotype surface markers, lymphocytes contained in the IEC fraction or spleen were harvested, stained using recommended dilutions indicated by manufacturer product sheets and gated on CD4-conjugated PerCP/Cy5.5 (Clone: GK1.5) or CD8-conjugated APC (Clone: 53-6.7) and configurations of the following per mouse in duplicate: CD69-PE (Clone: H1.2F3), CD62L-PE (Clone: MEL-14), CD25-PE (Clone: 3C7), CD44-PerCP/Cy5.5 (Clone: IM7), CD44-APC (Clone: IM7), FoxP3-APC (Clone: FJK-16s). Stained cells were then analyzed with an Accuri C6 Flow Cytometer (BD Biosciences). IECs were stained with CD326-conjugated APC (Clone: G8.8) and DAPI and sorted to >98% purity using a FACSAria III (BD Biosciences) gating on live cells.
# The total numbers of CD45.1+ cells recovered from the intestinal lamina propria were not different between vehicle- and butyrate-treated allo-BMT recipients. By contrast, intestinal infiltration of donor CD4+ and CD8+ T cells and activated T cells (CD69+ or CD44hi) was decreased in animals that received local intragastric butyrate administration (FIG. 4a). However, the ratio of donor Treg cells to effector T cells was not different in the intestines of these animals (FIG. 4b). […] However, no difference in the total number of donor macrophages in the intestine of allogenenic recipients that were treated with either vehicle or butyrate was observed (FIG. 4c).
# [2] = tested on: HDAC; assay: HDAC enzymatic activity in donor T cells from recipient spleen; format: in vivo, mouse; settings: butyrate vs vehicle treated allogeneic animals
# Procedure: (§1) To further determine whether the salutary effects of local treatment with butyrate on GI GVHD were dependent on donor Treg cells, a BMT was performed utilizing the same HC mismatched BMT model in which C57BL/6J (H-2b) cells are transferred to Balb/c (H-2d) mice. T cell-depleted (TCD) bone marrow was transplanted and purified CD4+CD25− T cells from donors. Vehicle or butyrate was administered to the recipients daily for 1 week, then every other day thereafter as above. […]. J. Exp. Med. 204, 57-63 (2007); Lahl, K. & Sparwasser, T. In vivo depletion of FoxP3+ Tregs using the DEREG mouse model. […]. The Treg depleted T cells were then used as donor cells in the major MHC mismatch model used above. […] To further examine whether the local administration of butyrate impacted donor T cells directly, the HDAC and HAT enzymatic activity was determined in donor T cells harvested from the recipient animals. Both the HDAC activity or HAT activity in the donor T cells harvested from the recipient spleen were similar between butyrate and vehicle treated allogeneic animals.
# [3] = tested on: HAT; assay: HAT enzymatic activity in donor T cells from recipient spleen; format: in vivo, mouse; settings: butyrate vs vehicle treated allogeneic animals
# Procedure: as §1
# [4] = tested on: CD326+ IECs; assay: IEC viability assay with or without irradiation (6 Gy); format: cell-based, mouse; settings: ex vivo
# Procedure: Primary intestinal epithelial cells (IECs) were obtained from C57BL/6J mice as described previously (Lefrangois, L. & Lycke, N. Isolation of Mouse Small Intestinal Intraepithelial Lymphocytes, Peyer's Patch, and Lamina Propria Cells. (John Wiley & Sons, Inc., 2001)). Briefly, luminal contents of intestine were flushed with CMF solution. Intestine was then minced into 0.5 cm pieces, washed with CMF four times, transferred to CMF/FBS/EDTA, and incubated at 37° C. for 60 minutes (shaking tubes every 10 minutes). Supernatant containing IECs was then transferred through […] cell filter followed by incubation on ice for 10 minutes to allow sedimentation. Supernatant was again transferred through a 75 μM cell filter. CD326+ IECs were next purified utilizing either FACS or anti-APC magnetic microbeads (Miltenyi Biotec Ltd., Auburn, Calif.) and an autoMACs (Miltenyi Biotec). […]
# The potential mechanisms that contribute to butyrate-induced protection from severe GVHD were explored. […] The ability of butyrate-treated IECs to withstand damage mediated by alloreactive T cells was determined by isolating and culturing primary IECs with butyrate or vehicle control, overnight. […] Because butyrate is a primary energy source for IECs 1-13, it was next determined whether butyrate enhances survival and growth of IECs in vitro. […]
# [5] = tested on: primary C57BL/6J IECs; assay: CTL assay: allogeneic CD8+ T cell killing of IECs; format: cell-based, mouse; settings: butyrate pre-treated overnight, vs control
# Procedure: CD8+ T cells were isolated from Balb/c (H-2d) mice using anti-CD8 microbeads and LS columns (Miltenyi Biotec) following the manufacturer's instructions. CD8+ T cells were primed in the presence of irradiated (30 Gy) C57BL/6J (H-2b) splenocytes for 6 days prior to culture with primary IECs for 6 h and 16 h. Primary C57BL/6J IECs were harvested and incubated overnight in the presence or absence of butyrate 1 mM in gelatin coated (Cell Biologics Inc.; Chicago, Ill.) 100 mm-culture dishes (Fisher Scientific).
# The potential mechanisms that contribute to butyrate-induced protection from severe GVHD were explored. Because (a) butyrate is decreased in IECs, (b) administration of butyrate mitigated GI GVHD independent of Treg cells, but (c) improved junction integrity, it was explored whether butyrate had direct effects on protecting IECs from allo-T cell mediated damage and conditioning. IECs were treated ex vivo with vehicle or butyrate for 24 hours irradiation (6 Gy) or no-irradition, followed by 24 hours of additional incubation with butyrate was performed. […] The ability of butyrate-treated IECs to withstand damage mediated by alloreactive T cells was determined by isolating and culturing primary IECs with butyrate or vehicle control, overnight. […] Because butyrate is a primary energy source for IECs 1-13, it was next determined whether butyrate enhances survival and growth of IECs in vitro. […]
# [6] = tested on: IECs; assay: qPCR of butyrate treated IECs in vitro; format: cell-based, mouse
# Procedure: mRNA was isolated from samples using RNeasy kit following manufacturers instructions (Qiagen; Venlo, Netherlands). Using 1 μg of each mRNA template, cDNA was synthesized using SuperScript VILO (Invitrogen; Carlsbad, Calif.). qPCR primers were designed for murine targets. All primers were verified for the production of a single specific PCR product using a melting curve program and are shown below in Table 2.
# It was hypothesized that butyrate would increase anti-apoptotic genes by modulation of histone acetylation. […] It was also determined if the restored acetylation of histone H4 observed in butyrate-treated allo-BMT recipients was responsible for increased BCL-B (Bcl2110) and JAM (F11r) expression via ChIP.
# [7] = IECs following butyrate treatment
structure (smiles),measurement,setting,value
"CCCC(=O)[O-].[Na+] [butyrate, sodium butyrate]",ratio of donor Treg cells to effector T cells in the intestines,[1]; 21 days after allo-BMT,not different
same,intestinal infiltration of donor CD4+ and CD8+ T cells and activated T cells (CD69+ or CD44hi),"[1]; 21 days after allo-BMT, intragastric butyrate",decreased
same,total numbers of CD45.1+ cells recovered from the intestinal lamina propria,"[1]; 21 days after allo-BMT, vehicle vs butyrate",not different
same,total number of donor macrophages in the intestine,"[1]; allogeneic recipients, vehicle vs butyrate",no difference
same,HDAC activity in donor T cells,[2],similar
same,HAT activity in donor T cells,[3],similar
same,irradiation-induced apoptosis of IECs,[4]; irradiation 6 Gy,conferred protection
same,toxicity to IECs,[4]; no irradiation,not toxic
same,IECs succumbing to CD8+ T cell killing,[5]; 6 hours co-culture,Fewer butyrate pre-treated IECs succumbed
same,IECs succumbing to CD8+ T cell killing,[5]; 16 hours co-culture,Fewer butyrate pre-treated IECs succumbed
same,mRNA expression of JAM (F11r),[6]; [7],significantly increased
same,mRNA expression of occludin (Ocln),[6]; [7],significantly increased
same,Bakl mRNA expression,[6]; butyrate treated IECs,significantly decreased
same,Bax mRNA expression,[6]; butyrate treated IECs,significantly decreased
same,transcripts of BCL-B (Bcl2110),[6]; butyrate treated IECs,significantly increased
